Reference: ChEMBL document CHEMBL2417377, “Hit-to-lead optimization and kinase selectivity of imidazo[1,2-a]quinoxalin-4-amine derived JNK1 inhibitors” (Bioorg Med Chem Lett, 2013)

Key:
Details in all cases: PC-3
[1] = target: Serine/threonine-protein kinase Chk2 (Homo sapiens) (UniProt O96017); assay: (§1) Inhibition of CHK2 in human PC3 cell lysates at 10 uM using desthiobiotin-tagged ATP probe AX9989 followed by trypsinization by LC/MS analysis
[2] = target: T1, Serine/threonine-protein kinase TAO1 (Homo sapiens) (UniProt Q7L7X3); assay: Inhibition of TAO1 in human PC3 cell lysates at 10 uM using desthiobiotin-tagged ATP probe AX9989 followed by trypsinization by LC/MS analysis
T1 sequence (whole entry): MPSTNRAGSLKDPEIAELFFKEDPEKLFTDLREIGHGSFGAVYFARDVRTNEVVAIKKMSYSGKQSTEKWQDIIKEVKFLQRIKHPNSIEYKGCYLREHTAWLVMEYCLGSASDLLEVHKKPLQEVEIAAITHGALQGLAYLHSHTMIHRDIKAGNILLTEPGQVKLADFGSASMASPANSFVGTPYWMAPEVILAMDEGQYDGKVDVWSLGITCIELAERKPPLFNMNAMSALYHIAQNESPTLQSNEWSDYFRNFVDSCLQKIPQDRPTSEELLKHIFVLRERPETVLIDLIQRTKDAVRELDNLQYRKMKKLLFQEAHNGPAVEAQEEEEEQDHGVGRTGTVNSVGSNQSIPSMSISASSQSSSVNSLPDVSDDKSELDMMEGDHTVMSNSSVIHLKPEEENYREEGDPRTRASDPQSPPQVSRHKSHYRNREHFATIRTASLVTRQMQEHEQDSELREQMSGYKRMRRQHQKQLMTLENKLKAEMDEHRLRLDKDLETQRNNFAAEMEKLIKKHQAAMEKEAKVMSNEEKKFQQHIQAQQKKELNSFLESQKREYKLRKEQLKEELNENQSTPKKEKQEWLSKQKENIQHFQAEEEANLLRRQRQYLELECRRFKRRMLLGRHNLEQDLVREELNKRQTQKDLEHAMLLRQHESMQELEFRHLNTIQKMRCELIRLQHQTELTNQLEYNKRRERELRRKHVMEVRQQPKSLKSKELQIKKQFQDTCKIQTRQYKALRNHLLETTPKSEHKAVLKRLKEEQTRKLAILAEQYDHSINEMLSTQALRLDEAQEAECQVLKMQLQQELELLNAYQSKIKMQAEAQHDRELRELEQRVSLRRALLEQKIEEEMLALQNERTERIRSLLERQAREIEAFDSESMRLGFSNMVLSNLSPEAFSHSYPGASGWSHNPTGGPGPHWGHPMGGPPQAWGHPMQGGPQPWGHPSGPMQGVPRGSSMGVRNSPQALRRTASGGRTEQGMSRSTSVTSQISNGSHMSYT

[3] = target: Casein kinase I isoform alpha (Homo sapiens) (UniProt P48729); assay: Inhibition of CK1alpha in human PC3 cell lysates at 10 uM using desthiobiotin-tagged ATP probe AX9989 followed by trypsinization by LC/MS analysis
Sequence of Casein kinase I isoform alpha (Homo sapiens) (P48729 2-337 limits assumed): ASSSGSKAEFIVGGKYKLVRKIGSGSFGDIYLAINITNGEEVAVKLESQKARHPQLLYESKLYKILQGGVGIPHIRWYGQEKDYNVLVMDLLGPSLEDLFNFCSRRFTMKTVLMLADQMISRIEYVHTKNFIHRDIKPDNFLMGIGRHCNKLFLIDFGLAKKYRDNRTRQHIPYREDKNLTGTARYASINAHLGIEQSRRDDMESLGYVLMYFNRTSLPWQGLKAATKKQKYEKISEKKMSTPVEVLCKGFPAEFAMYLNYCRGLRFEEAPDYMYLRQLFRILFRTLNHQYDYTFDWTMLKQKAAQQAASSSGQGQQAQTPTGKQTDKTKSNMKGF

[4] = target: Serine/threonine-protein kinase Chk2 (Homo sapiens) (UniProt O96017); assay: as §1; remark: listed apart in the source
[5] = target: Mitogen-activated protein kinase kinase kinase 20 (Homo sapiens) (UniProt Q9NYL2); assay: Inhibition of ZAK in human PC3 cell lysates at 10 uM using desthiobiotin-tagged ATP probe AX9989 followed by trypsinization by LC/MS analysis
Sequence of Mitogen-activated protein kinase kinase kinase 20 (Homo sapiens) (Q9NYL2 2-800 limits assumed): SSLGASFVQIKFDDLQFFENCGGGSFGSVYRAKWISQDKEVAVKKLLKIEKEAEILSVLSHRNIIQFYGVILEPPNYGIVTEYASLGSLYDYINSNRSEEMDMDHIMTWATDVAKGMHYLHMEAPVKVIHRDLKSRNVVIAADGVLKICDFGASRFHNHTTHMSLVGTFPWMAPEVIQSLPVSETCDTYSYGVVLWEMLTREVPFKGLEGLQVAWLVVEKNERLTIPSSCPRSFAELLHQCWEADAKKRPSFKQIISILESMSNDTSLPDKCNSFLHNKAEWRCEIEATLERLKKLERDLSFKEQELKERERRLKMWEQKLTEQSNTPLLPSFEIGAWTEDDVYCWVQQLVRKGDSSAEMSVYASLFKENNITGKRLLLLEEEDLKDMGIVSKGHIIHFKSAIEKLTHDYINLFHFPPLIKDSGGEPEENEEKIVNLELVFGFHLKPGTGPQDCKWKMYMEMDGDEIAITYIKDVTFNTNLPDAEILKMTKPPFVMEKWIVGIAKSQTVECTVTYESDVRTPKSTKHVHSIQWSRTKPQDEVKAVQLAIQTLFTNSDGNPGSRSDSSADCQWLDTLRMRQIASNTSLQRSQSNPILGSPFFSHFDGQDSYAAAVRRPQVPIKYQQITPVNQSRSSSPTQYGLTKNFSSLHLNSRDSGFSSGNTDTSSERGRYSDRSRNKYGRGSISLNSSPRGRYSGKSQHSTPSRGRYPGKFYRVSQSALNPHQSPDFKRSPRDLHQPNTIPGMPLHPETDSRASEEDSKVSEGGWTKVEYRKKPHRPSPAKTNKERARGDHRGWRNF

[6] = target: T2, Serine/threonine-protein kinase tousled-like 1 (Homo sapiens) (UniProt Q9UKI8); assay: Inhibition of TLK1 in human PC3 cell lysates at 10 uM using desthiobiotin-tagged ATP probe AX9989 followed by trypsinization by LC/MS analysis
T2 sequence (whole entry): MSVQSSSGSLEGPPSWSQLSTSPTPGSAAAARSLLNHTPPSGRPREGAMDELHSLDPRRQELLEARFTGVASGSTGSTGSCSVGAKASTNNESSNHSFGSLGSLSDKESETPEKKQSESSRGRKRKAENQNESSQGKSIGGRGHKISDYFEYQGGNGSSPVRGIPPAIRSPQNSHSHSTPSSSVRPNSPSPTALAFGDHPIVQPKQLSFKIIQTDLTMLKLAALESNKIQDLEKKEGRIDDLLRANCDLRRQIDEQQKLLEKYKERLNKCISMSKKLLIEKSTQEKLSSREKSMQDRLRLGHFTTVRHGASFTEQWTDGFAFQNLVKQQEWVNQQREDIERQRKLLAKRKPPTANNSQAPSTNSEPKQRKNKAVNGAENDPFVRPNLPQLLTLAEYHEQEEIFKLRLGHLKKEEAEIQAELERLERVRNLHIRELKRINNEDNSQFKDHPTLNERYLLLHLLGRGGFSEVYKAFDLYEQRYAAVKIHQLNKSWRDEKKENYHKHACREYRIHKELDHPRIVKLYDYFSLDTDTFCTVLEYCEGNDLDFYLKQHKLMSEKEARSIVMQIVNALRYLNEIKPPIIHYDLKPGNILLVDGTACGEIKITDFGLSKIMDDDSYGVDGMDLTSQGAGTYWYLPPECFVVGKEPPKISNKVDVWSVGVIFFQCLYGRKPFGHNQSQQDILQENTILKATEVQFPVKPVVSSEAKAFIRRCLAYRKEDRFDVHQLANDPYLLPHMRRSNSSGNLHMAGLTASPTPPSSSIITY

[7] = target: Serine/threonine-protein kinase MRCK beta (Homo sapiens) (UniProt Q9Y5S2); assay: Inhibition of MRCKbeta in human PC3 cell lysates at 10 uM using desthiobiotin-tagged ATP probe AX9989 followed by trypsinization by LC/MS analysis
[8] = target: Hepatocyte growth factor receptor (Homo sapiens) (UniProt P08581); assay: Inhibition of MET in human PC3 cell lysates at 10 uM using desthiobiotin-tagged ATP probe AX9989 followed by trypsinization by LC/MS analysis
Sequence of Hepatocyte growth factor receptor (Homo sapiens) (P08581 whole entry): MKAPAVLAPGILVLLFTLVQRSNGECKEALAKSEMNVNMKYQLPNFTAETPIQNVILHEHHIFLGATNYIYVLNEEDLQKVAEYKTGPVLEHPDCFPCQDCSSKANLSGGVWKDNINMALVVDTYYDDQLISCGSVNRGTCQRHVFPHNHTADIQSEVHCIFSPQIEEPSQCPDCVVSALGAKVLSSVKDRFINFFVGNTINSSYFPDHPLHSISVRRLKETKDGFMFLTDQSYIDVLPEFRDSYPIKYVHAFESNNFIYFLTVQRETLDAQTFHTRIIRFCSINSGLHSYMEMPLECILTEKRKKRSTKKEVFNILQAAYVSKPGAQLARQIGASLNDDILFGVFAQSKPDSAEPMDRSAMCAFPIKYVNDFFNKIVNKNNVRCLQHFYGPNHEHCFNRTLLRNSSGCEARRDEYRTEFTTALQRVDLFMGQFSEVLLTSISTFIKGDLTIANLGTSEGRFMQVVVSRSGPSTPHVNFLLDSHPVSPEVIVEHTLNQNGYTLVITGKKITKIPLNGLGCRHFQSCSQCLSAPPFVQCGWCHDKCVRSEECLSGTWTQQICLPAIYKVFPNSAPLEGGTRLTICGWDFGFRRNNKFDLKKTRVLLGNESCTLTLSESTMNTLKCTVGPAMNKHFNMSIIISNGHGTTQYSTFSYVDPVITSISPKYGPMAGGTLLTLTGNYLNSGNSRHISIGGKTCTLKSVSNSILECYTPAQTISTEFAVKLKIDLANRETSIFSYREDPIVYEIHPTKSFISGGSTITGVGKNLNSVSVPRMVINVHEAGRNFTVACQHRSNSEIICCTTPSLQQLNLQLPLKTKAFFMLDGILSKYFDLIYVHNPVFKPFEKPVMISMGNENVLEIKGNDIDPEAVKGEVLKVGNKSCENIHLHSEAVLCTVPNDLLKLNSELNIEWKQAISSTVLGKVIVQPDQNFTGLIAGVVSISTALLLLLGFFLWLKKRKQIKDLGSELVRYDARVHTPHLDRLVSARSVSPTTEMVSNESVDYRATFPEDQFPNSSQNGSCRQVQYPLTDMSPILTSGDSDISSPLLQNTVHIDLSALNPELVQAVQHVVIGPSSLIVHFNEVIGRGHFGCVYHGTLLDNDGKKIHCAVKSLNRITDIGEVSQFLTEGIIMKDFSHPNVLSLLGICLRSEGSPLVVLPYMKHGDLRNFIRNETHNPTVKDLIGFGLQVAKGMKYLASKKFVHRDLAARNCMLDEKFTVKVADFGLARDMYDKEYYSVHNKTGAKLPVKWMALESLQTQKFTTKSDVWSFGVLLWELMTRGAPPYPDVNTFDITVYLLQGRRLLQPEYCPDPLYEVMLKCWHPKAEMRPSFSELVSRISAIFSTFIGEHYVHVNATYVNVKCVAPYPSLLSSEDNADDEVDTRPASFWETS

[9] = target: Proto-oncogene tyrosine-protein kinase Src (Homo sapiens) (UniProt P12931); assay: Inhibition of SRC in human PC3 cell lysates at 10 uM using desthiobiotin-tagged ATP probe AX9989 followed by trypsinization by LC/MS analysis
Sequence of Proto-oncogene tyrosine-protein kinase Src (Homo sapiens) (P12931 2-536 limits assumed): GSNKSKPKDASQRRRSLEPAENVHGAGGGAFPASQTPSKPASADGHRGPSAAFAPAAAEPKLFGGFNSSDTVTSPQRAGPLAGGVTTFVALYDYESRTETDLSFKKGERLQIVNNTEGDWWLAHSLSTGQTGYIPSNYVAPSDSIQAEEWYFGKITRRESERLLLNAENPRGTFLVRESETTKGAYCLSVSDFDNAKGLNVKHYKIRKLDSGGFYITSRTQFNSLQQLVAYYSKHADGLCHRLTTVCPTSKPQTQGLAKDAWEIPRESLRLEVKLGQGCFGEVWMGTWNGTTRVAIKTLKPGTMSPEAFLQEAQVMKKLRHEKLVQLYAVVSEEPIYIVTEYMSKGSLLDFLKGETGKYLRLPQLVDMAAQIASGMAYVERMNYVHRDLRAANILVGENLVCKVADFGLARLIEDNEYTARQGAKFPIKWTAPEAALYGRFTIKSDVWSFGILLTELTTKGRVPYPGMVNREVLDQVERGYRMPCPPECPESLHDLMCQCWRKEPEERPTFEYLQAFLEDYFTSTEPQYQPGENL

[10] = target: DNA-dependent protein kinase catalytic subunit (Homo sapiens) (UniProt P78527); assay: Inhibition of DNAPK in human PC3 cell lysates at 10 uM using desthiobiotin-tagged ATP probe AX9989 followed by trypsinization by LC/MS analysis
[11] = target: Cyclin-dependent kinase 16 (Homo sapiens) (UniProt Q00536); assay: Inhibition of PCTAIRE1 in human PC3 cell lysates at 10 uM using desthiobiotin-tagged ATP probe AX9989 followed by trypsinization by LC/MS analysis
Sequence of Cyclin-dependent kinase 16 (Homo sapiens) (Q00536 whole entry): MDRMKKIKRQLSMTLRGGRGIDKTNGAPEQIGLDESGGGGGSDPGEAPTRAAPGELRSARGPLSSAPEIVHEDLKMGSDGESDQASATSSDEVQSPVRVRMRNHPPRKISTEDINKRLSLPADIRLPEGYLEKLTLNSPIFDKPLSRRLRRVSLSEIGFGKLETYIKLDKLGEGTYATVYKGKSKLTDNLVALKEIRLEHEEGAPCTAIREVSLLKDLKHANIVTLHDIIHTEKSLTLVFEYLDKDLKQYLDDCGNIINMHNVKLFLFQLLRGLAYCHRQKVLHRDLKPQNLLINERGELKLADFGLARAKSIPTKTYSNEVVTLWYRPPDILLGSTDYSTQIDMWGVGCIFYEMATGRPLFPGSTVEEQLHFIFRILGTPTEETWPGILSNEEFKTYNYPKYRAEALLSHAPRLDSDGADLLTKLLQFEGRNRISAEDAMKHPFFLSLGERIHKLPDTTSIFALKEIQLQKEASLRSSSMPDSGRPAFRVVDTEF

Sequence of Serine/threonine-protein kinase Chk2 (Homo sapiens) (O96017 whole entry): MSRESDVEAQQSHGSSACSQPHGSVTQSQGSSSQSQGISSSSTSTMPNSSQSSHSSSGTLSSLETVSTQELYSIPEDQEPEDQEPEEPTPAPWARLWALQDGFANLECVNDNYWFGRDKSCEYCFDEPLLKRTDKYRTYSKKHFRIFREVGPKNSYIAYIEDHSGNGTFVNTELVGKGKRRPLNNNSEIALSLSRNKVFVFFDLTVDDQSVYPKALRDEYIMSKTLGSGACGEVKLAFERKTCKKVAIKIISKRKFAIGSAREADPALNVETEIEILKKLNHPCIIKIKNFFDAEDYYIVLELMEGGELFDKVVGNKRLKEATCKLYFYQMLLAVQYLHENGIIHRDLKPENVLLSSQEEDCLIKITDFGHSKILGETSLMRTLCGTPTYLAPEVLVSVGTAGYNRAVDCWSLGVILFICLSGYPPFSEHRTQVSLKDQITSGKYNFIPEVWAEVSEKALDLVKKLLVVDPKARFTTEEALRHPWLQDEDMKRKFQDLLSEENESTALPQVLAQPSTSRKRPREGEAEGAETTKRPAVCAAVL

CC(C)(NC(=O)c1ccc2nc(N[C@H]3CC[C@H](O)CC3)c3nccn3c2c1)c1ccccc1
inhibition [1]: < 35% | inhibition [2]: < 35% | inhibition [3]: < 35% | inhibition [4]: < 35% | inhibition [5]: < 35% | inhibition [6]: < 35% | inhibition [7]: < 35% | inhibition [8]: < 35% | inhibition [9]: < 35% | inhibition [10]: < 35% | inhibition [11]: < 35%

O=C(NC1(Cc2ccc(F)cc2)CC1)c1ccc2nc(N[C@H]3CC[C@H](O)CC3)c3nccn3c2c1
inhibition [1]: < 35% | inhibition [2]: < 35% | inhibition [3]: < 35% | inhibition [4]: < 35% | inhibition [5]: < 35% | inhibition [6]: < 35% | inhibition [7]: < 35% | inhibition [8]: < 35% | inhibition [9]: < 35% | inhibition [10]: < 35% | inhibition [11]: < 35%

O=C(N[C@H](CO)c1ccccc1)c1ccc2nc(N[C@H]3CC[C@H](O)CC3)c3nccn3c2c1
inhibition [1]: < 35% | inhibition [2]: < 35% | inhibition [3]: < 35% | inhibition [4]: 45.6% | inhibition [5]: < 35% | inhibition [6]: < 35% | inhibition [7]: < 35% | inhibition [8]: < 35% | inhibition [9]: < 35% | inhibition [10]: < 35% | inhibition [11]: < 35%

C[C@H](NC(=O)c1ccc2nc(N[C@H]3CC[C@H](O)CC3)c3nccn3c2c1)c1ccccc1
inhibition [1]: < 35% | inhibition [2]: < 35% | inhibition [3]: < 35% | inhibition [4]: < 35% | inhibition [5]: < 35% | inhibition [6]: < 35% | inhibition [7]: < 35% | inhibition [8]: < 35% | inhibition [9]: < 35% | inhibition [10]: < 35% | inhibition [11]: < 35%

O=C(NC1(c2ccc(F)cc2)CC1)c1ccc2nc(N[C@H]3CC[C@H](O)CC3)c3nccn3c2c1
inhibition [1]: < 35% | inhibition [2]: < 35% | inhibition [3]: < 35% | inhibition [4]: < 35% | inhibition [5]: < 35% | inhibition [6]: < 35% | inhibition [7]: < 35% | inhibition [8]: < 35% | inhibition [9]: < 35% | inhibition [10]: < 35% | inhibition [11]: < 35%

C[C@@H](NC(=O)c1ccc2nc(N[C@H]3CC[C@H](O)CC3)c3nccn3c2c1)c1ccccc1
inhibition [1]: < 35% | inhibition [2]: < 35% | inhibition [3]: < 35% | inhibition [4]: 36.9% | inhibition [5]: < 35% | inhibition [6]: < 35% | inhibition [7]: < 35% | inhibition [8]: < 35% | inhibition [9]: < 35% | inhibition [10]: < 35% | inhibition [11]: < 35%

CC[C@@H](NC(=O)c1ccc2nc(N[C@H]3CC[C@H](O)CC3)c3nccn3c2c1)c1ccccc1
inhibition [1]: < 35% | inhibition [2]: < 35% | inhibition [3]: < 35% | inhibition [4]: < 35% | inhibition [5]: < 35% | inhibition [6]: < 35% | inhibition [7]: < 35% | inhibition [8]: < 35% | inhibition [9]: < 35% | inhibition [10]: < 35% | inhibition [11]: < 35%

CCC[C@@H](NC(=O)c1ccc2nc(N[C@H]3CC[C@H](O)CC3)c3nccn3c2c1)c1ccccc1
inhibition [1]: < 35% | inhibition [2]: < 35% | inhibition [3]: < 35% | inhibition [4]: < 35% | inhibition [5]: < 35% | inhibition [6]: < 35% | inhibition [7]: < 35% | inhibition [8]: < 35% | inhibition [9]: < 35% | inhibition [10]: < 35% | inhibition [11]: < 35%

O=C(NC1(c2ccccc2)CCC1)c1ccc2nc(N[C@H]3CC[C@H](O)CC3)c3nccn3c2c1
inhibition [1]: < 35% | inhibition [2]: < 35% | inhibition [3]: < 35% | inhibition [4]: < 35% | inhibition [5]: < 35% | inhibition [6]: < 35% | inhibition [7]: < 35% | inhibition [8]: < 35% | inhibition [9]: < 35% | inhibition [10]: < 35% | inhibition [11]: < 35%

O=C(O)c1ccc2nc(N[C@H]3CC[C@H](O)CC3)c3nccn3c2c1
inhibition [1]: < 35% | inhibition [2]: < 35% | inhibition [3]: 57.1% | inhibition [4]: 35% | inhibition [5]: < 35% | inhibition [6]: < 35% | inhibition [7]: < 35% | inhibition [8]: < 35% | inhibition [9]: < 35% | inhibition [10]: < 35% | inhibition [11]: 71.1%

NC(=O)c1ccc2nc(N[C@H]3CC[C@H](O)CC3)c3nccn3c2c1
inhibition [1]: < 35% | inhibition [2]: < 35% | inhibition [3]: 69% | inhibition [4]: < 35% | inhibition [5]: < 35% | inhibition [6]: < 35% | inhibition [7]: < 35% | inhibition [8]: < 35% | inhibition [9]: < 35% | inhibition [10]: < 35% | inhibition [11]: < 35%

O=C(NC1(c2ccccc2)CC1)c1ccc2nc(N[C@H]3CC[C@H](O)CC3)c3nccn3c2c1
inhibition [1]: < 35% | inhibition [2]: < 35% | inhibition [3]: < 35% | inhibition [4]: < 35% | inhibition [5]: < 35% | inhibition [6]: < 35% | inhibition [7]: < 35% | inhibition [8]: < 35% | inhibition [9]: < 35% | inhibition [10]: < 35% | inhibition [11]: < 35%
